In the OPERA property sets (Mansouri et al. 2018):

Molecule `CCCCCCCCCCCCc1ccccc1` has a logP of 8.65. Molecule `CCCCCC(CCCCC)c1ccccc1` has a logP of 7.45. For `CCCCCCCCCCCC(CC)c1ccccc1` (configuration not stated), the logP was 9.29. In the case of `CCCCCCC(CCCC)c1ccccc1` (configuration not stated), the logP is reported as 7.45. Molecule `CCCCCCCCC(CCCC)c1ccccc1` (configuration not stated) has a logP of 8.56. `CCCCCCC(CCC)c1ccccc1` (configuration not stated) gave a logP of 7. `CCCCCCCCCC(CC)c1ccccc1` (configuration not stated) showed a logP of 8.1. For `CCCCCCCCCCCC(C)c1ccccc1` (configuration not stated), the logP was 8.77. Molecule `CCCCCCCCCCCc1ccccc1` has a logP of 8.14. In the case of `CCCCCCCC(CCCC)c1ccccc1` (configuration not stated), the logP is reported as 8.01. For `CCCCCCCCCCCCCc1ccccc1`, the logP was 9.36. With `CCCCCCCC(CCC)c1ccccc1` (configuration not stated) the logP was 7.59. Work on `CCCCCCCCCCCCC(C)c1ccccc1` (configuration not stated) yielded a logP of 9.29. Molecule `CCCCCCCCCCC(C)c1ccccc1` (configuration not stated) has a logP of 8.19. Work on `CCCCCCCCC(C)c1ccccc1` (configuration not stated) yielded a logP of 7.06. Molecule `CCCCCCCCC(CCCCC)c1ccccc1` (configuration not stated) has a logP of 9.16. Molecule `CCCCCCCCCC(CCC)c1ccccc1` (configuration not stated) has a logP of 8.62. Molecule `CCCCCCCC(CC)c1ccccc1` (configuration not stated) has a logP of 7. `CCCCCCCC(CCCCC)c1ccccc1` (configuration not stated) gave a logP of 8.56. In the case of `CCCCCCCCC(CCC)c1ccccc1` (configuration not stated), the logP is reported as 8.07. Molecule `CCCCCCCCCCC(CCC)c1ccccc1` (configuration not stated) has a logP of 9.25. For `CCCCCCCCC(CC)c1ccccc1` (configuration not stated), the logP was 7.53. `CCCCCCC(CCCCC)c1ccccc1` (configuration not stated) showed a logP of 8.01. `CCCCCCCCCC(C)c1ccccc1` (configuration not stated) gave a logP of 7.63. For `CCCCCCCCCCC(CC)c1ccccc1` (configuration not stated), the logP was 8.65. Work on `CCCCCC(CCCC)c1ccccc1` (configuration not stated) yielded a logP of 6.9. `CCCCCCCCCC(CCCC)c1ccccc1` (configuration not stated) gave a logP of 9.16.
